Measured values published in patent US8044071B2, “Method for reducing side effects of CB2 receptor agonist therapy using a combination of a selective CB2 receptor agonist and a selective CB1 receptor antagonist” (Abbott Laboratories, priority 2007, dated 2011).

How the values were obtained:
Format in all cases: in vivo
[1] = system: skin incision model of postoperative pain; assay: Skin incision model of postoperative pain (tactile allodynia, von Frey); conditions: rat; for analgesia (tactile allodynia), agonist after rimonabant: 30 μmol/kg i.p. given 15 min after rimonabant 30 μmol/kg i.p.; for withdrawal threshold for the incisional paw (allodynia): 10 and 30 μmol/kg i.p., two hours after surgery
Text: Adult male Sprague-Dawley rats (250-300 g body weight, Charles River Laboratories, Portage, Mich.) were used. Animal handling and experimental protocols were approved by the Institutional Animal Care and Use Committee (IACUC) at Abbott Laboratories. For all surgical procedures, animals were maintained under halothane anesthesia (4% to induce, 2% to maintain), and the incision sites were sterilized using a 10% povidone-iodine solution prior to and after surgeries.
A skin incision model of postoperative pain was produced using the procedures described in Brennan et al., 1996, Pain, 64, 493. All rats were anesthetized with isoflurane delivered via a nose cone. Right hind paw incision was performed following sterilization procedures. The plantar aspect of the […] hind paw was placed through a hole in a sterile plastic drape. A 1-cm longitudinal incision was made through the skin and fascia of the plantar aspect of the hind paw, starting 0.5 cm from the proximal edge of the heel and extending towards the toes, the plantar muscle was elevated and incised longitudinally leaving the muscle origin and insertion points intact. The skin was then closed with two mattress sutures (5-0 nylon). After surgery, animals were then allowed to recover for 2 hours, at which time tactile allodynia was assessed as described below. To evaluate the anti-nociceptive effects, animals were i.p. administered vehicle or test compound 90 minutes following skin incision and tactile allodynia was typically assessed 30 minutes after compound administration.
Tactile allodynia was measured using calibrated von Frey filaments (Stoelting, Wood Dale, Ill.) as described in Chaplan, S. R., F. W. Bach, J. W. Porgrel, J. M. Chung and T. L. Yaksh, 1994, Quantitative assessment of tactile allodynia in the rat paw, J. Neurosci. Methods, 53, 55. Rats were placed into inverted individual plastic cage (20×12.5×20 cm) on top of a suspended wire mesh grid, and acclimated to the test chambers for 20 minutes. The von Frey filaments were applied perpendicularly from underneath the cage through openings in the wire mesh floor directly to an area within 1-3 mm (immediately adjacent) of the incision, and then held in this position for approximately 8 seconds with enough force to cause a slight bend in the filament. Positive responses included an abrupt withdrawal of the hind paw from the stimulus, or flinching behavior immediately following removal of the stimulus. A 50% withdrawal threshold was determined using an up-down procedure as described in Dixon, W. J., 1980, Efficient analysis of experimental observations, Ann. Rev. Pharmacol. Toxicol., 20, 441. The effect on paw withdrawal latency of test compounds compared to vehicle control represents the ability of the test compound to reduce allodynia. An increase in the paw withdrawal latency represents an anti-allodynic effect (i.e., a decrease in pain).
Using the skin incisional model of postoperative pain, the effects of compound A, CB2 agonist (Z)—N-(5-tert-butyl-3-butylthiazol-2(3H)-ylidene)-5-chloro-2-methoxybenzamide, on allodynia was assessed two hours after surgery.
Using the skin incisional model of postoperative pain, the effects of CB2 agonist A were evaluated after the administration of vehicle or the CB1 antagonist rimonabant. This effect was compared with the administration of vehicle after the administration of vehicle or the CB1 antagonist rimonabant. A first dose, consisting of CB1 antagonist rimonabant (30 μmol/kg i.p.) or a vehicle (5% DMSO/PEG), was administered 15 minutes before a second dose, consisting of administration of CB2 agonist A (30 μmol/kg i.p.) or vehicle. Allodynia testing was conducted 30 minutes after administration of the second dose, either CB2 agonist A or vehicle.

[2] = system: hind limb grip force; assay: Grip force behavior (hind limb); conditions: rat, 30 μmol/kg i.p.
Description: Adverse effects can be assessed by measurements of Grip Force (GF) Behavior. Measurements of hind limb grip force are conducted by recording the maximum compressive force exerted on the hind limb strain gauge setup, in a commercially available grip force measurement system (Columbus Instruments, Columbus, Ohio). During testing, animals are gently restrained by grasping around its rib cage and then allowed to grasp the wire mesh frame (10×12 cm^2) attached to the strain gauge. The experimenter then moves the animal in a rostral-to-caudal direction until the grip is broken. Each animal is sequentially tested twice at approximately 2-3 min interval to obtain a raw mean grip force (CFmax). This raw mean grip force data is in turn converted to a maximum hindlimb compressive force (CFmax) (gram force)/kg body weight for each animal. A group mean±S.E.M. for CFmax/kg body weight is calculated. A group of age-matched naïve animals are added to each experiment and the data obtained from the different dose groups for each compound—or compound combination—being tested are compared to the naïve group (assigned as being 100% normal). […]
Using the grip force behavior assay, the effects of CB2 agonist B were evaluated after the administration of vehicle or the CB1 antagonist rimonabant. […]

[3] = system: mean arterial pressure; assay: Mean arterial pressure in anesthetized rats; conditions: anesthetized rat
Description: Male Sprague-Dawley rats were anesthetized with the long acting barbiturate, Inactin. Catheters were placed in the femoral artery for measurement of MAP and HR. Additional catheters were placed in the femoral vein for compound administration and saline infusion to maintain hydration. Following a 30-minute control period, vehicle (PEG400), compound B (vehicle: PEG400; 2 ml/kg) or CB2 agonist B (vehicle: PEG400; 2 ml/kg) plus CB1 antagonist rimonabant (vehicle: PEG400; 1 ml/kg) was administered intravenously over a 30-minute infusion. When administered simultaneously, compound B and rimonabant were infused individually using separate syringes. The doses tested were 1.0 mg/kg for compound B and 3.2 mg/kg for rimonabant. Data is expressed as mean from 3 rats ±sem. […] These effects indicate that the reduction in blood pressure by CB2 agonist B results from its residual activation of the CB1 receptor.

[4] = tested 30 min after second dose

| SMILES | analgesia (tactile allodynia), agonist after rimonabant [1, 4] | analgesia (tactile allodynia), agonist after rimonabant ([1]; tested 30 min after second dose, listed as CB2 agonist A) | analgesia (tactile allodynia), agonist after vehicle ([1]; 30 μmol/kg i.p. given 15 min after vehicle, tested 30 min after second dose) | withdrawal threshold for the incisional paw (allodynia) [1] | reduction of grip force, agonist after rimonabant ([2]; rimonabant 30 μmol/kg i.p. 15 min before) | reduction of grip force, agonist after vehicle [2, 4] | effect on mean arterial pressure (MAP), agonist with rimonabant ([3]; 1.0 mg/kg i.v. plus rimonabant 3.2 mg/kg i.v., 30-minute infusion) | effect on mean arterial pressure (MAP), agonist alone ([3]; 1.0 mg/kg intravenously over 30-minute infusion) |
| --- | --- | --- | --- | --- | --- | --- | --- | --- |
| CCCCn1cc(C(C)(C)C)s/c1=N\C(=O)c1cc(Cl)ccc1OC [compound A, (Z)—N-(5-tert-butyl-3-butylthiazol-2(3H)-ylidene)-5-chloro-2-methoxybenzamide] | equivalent efficacy | able to induce analgesia | able to induce analgesia | recovered | – | – | – | – |
| COCCn1c(C)c(C)s/c1=N\C(=O)C1C(C)(C)C1(C)C [compound B, (Z)—N-(3-(2-methoxyethyl)-4,5-dimethylthiazol-2(3H)-ylidene)-2,2,3,3-tetramethylcyclopropanecarboxamide] | – | – | – | re-establishing withdrawal threshold | completely blocked | 42% | devoid of an effect on blood pressure relative to vehicle | has an effect to reduce blood pressure |
